Reference: patent US20210115000A1, “NILE RED DERIVATIVES FOR IMPROVED RATIOMETRIC IMAGING FOR NERVE SPECIFIC CONTRAST” (Oregon Health & Sciences University, priority 2018, published 2021)

Columns and labels:
[1] = tested on: sciatic nerve or brachial plexus nerve sites (adipose, nerve, muscle tissue); assay: In vivo imaging following direct/topical administration on rodent nerve sites; design: species or system male CD-1 mice; details: immediately following direct administration
Excerpt: In vivo images were acquired using a previously published, custom-built small animal fluorescence imaging system, described briefly here.^27 Fluorescent images were obtained using a Qimaging EXi Blue monochrome camera (Surrey, British Columbia, CA) with a removable Bayer mask for collection of co-registered color and fluorescence images. A Photofluor II broad band light source (89 North) was expanded onto the surgical field through a liquid light guide and used unfiltered for white light illumination. Nile Red and NR5 were excitated using a 545 t 12.5 nm bandpass filter, while fluorescence emission images were collected with a 605±35 nm bandpass filter. Oxazine 4 (Exciton, West Chester, Ohio) was used for nerve and adipose co-staining and ratiometic imaging studies. Oxazine 4 was excited using a 620±30 nm bandpass filter, while fluorescence emission images were collected through a 700±37.5 nm bandpass filter. Approval for the use of animals in the study was obtained from the Institutional Animal Care and Use Committee (IACUC) at Oregon Health and Science University (OHSU). In vivo staining studies were carried out on male CD-1 mice using an optimized direct/topical administration protocol.^2 Staining was performed concurrently on no more than two nerve sites (sciatic nerve or brachial plexus) per mouse. Nile Red and all Nile Red derivatives were formulated in a previously published co-solvent formulation (10% DMSO, 5% Kolliphor, 63.75% serum and 21.25% PBS^14) at a final concentration of 100 μM. Each formulated fluorophore was incubated for 5 minutes on the nerve site (n=4 nerve sites/fluorophore), followed by 9 short flushes with PBS. The nerve site was then incubated with blank co-solvent not containing fluorophore for 5 minutes, followed again by 9 short flushes with PBS.

[2] = tested on: U2OS human osteosarcoma cell line; assay: Nile Red derivative cell staining and imaging, fixed and live cells; type: cell-based; details: U2OS live, 1 μM, 5 min, imaged in staining solution
Experimental: The U2OS human osteosarcoma cell line was cultured in Dulbecco's Modified Eagle Medium (DMEM, Thermo Fisher Scientific, Waltham, Mass.) with 10% fetal bovine serum (FBS, VWR, Radnor, Pa.) and 1% Penicillin/Steptomycin 100× (Thermo Fisher Scientific) at 37° C. in 5% CO2. For live cell imaging studies, Fluorobrite DMEM media (Thermo Fisher Scientific) was used in place of DMEM. For imaging studies, cells were grown in 96-well glass bottom plates (Cellvis, Mountain View, Calif.) for 48 hours, with a final confluence of <80%. Nile Red and its derivatives were prepared at 1-10 mM stock concentration in DMSO and diluted into media or buffer for cell staining and imaging studies.
Cell staining studies were completed on fixed and live U2OS cells using Nile Red and each synthesized Nile Red derivative described as follows. For fixed cell staining, cells were washed once with 1× phosphate buffered saline (PBS), then fixed with 4% paraformaldehyde (PFA) for 20 minutes at room temperature. The PFA was removed and each well was washed three times for 5 mins per wash (3×5 mins) with 1×PBS. The Nile Red fluorophores were diluted into 1×PBS to a final concentration of 1 μM, incubated for 5 minutes with the cells, and images were collected without washing. Live cell staining was completed using two methods. First, cells were washed once with Fluorobrite DMEM. The Nile Red fluorophore solution was prepared in Fluorobrite DMEM by diluting to a final concentration of 1 μM for staining, where cells were stained for 5 minutes. The fluorophore containing media was removed and the cells were fixed for 20 minutes using 4% PFA. Cells were then washed 3×5 mins with Fluorobrite DMEM prior to imaging. Second, cells were washed with Fluorobrite DMEM without FBS once for 5 minutes. Nile Red fluorophore solutions were prepared in Fluorobrite without FBS at 1 μM final concentration for cell staining. The cells were stained with the prepared solution for 5 minutes and imaged in the staining solution. All images were collected at their ideal exposure times to permit visualization of stained intracellular structures.
All ex vivo and cellular fluorescence and white light images were collected using a Zeiss AxioObserver inverted fluorescence microscope (Carl Zeiss, Oberkochen, Germany). All cell images were collected at 40× magnification and all tissue section images were collected at 10× magnification. Fluorescence excitation was completed using a Photofluor II broad band light source (89 North, Burlington, Vt.) filtered with a 545±12.5 nm bandpass excitation filter. Fluorescence images were collected using a 605±35 nm bandpass emission filter and a AxioCam 506 monochromo camera (Zeiss). All Filters were Purchased from Chroma Technologies (Bellows Falls, Vt.).

[3] = tested on: CD-1 mouse sciatic nerve and surrounding muscle and adipose tissues; assay: Ex vivo tissue section staining, imaging and fluorescence quantification; details: 100 μM, 40 min, sections with nerve, muscle, adipose
Experimental: Cryosections of CD-1 mouse sciatic nerve and surrounding muscle and adipose tissues from unrelated experiments were cut from optimal cutting temperature (OCT, Fisher Scientific, Hampton, N.H.) embedded frozen tissues. Cryosectioned tissues were captured on superfrost plus slides (Fisher Scientific) at 10 μm thickness. The tissue sections were washed with 1×PBS for 2 minutes to remove OCT, and then fixed with 2% PFA for 15 mins. The tissue sections were then washed with 0.1% Tween 20 in 1×PBS (3×5 mins), followed by incubation with 100 μM of Nile Red and each Nile Red derivative formulated using 10% DMSO, 5% Kolliphore (Sigma Aldrich, St. Louis, Mo.), 63.75% FBS, and 21.25% 1× PBS as previously described.^26 Tissue sections were incubated with the formulated fluorophores for 40 minutes at room temperature, followed by washing with blank formulation not containing fluorophore (2×5 mins). Each tissue section was then washed with 1×PBS (2×5 mins), fixed for 15 minutes using 2% PFA, followed by a final wash with 1×PBS for 5 mins before mounting in glycerol (Fisher Scientific). Images were collected at an exposure time of 650 ms for all Nile Red and Nile Red derivative stained sections. Four tissue sections were stained for Nile Red and each Nile Red derivative, facilitating adipose to muscle and adipose to nerve contrast ratio quantification where tissue intensities were quantified using region of interest analysis with custom written MatLab code (The MathWorks, Natick, Mass.). For each tissue type, a representative area was selected, where a threshold based mask was set to determine tissue from background. The mean tissue intensity was calculated in adipose, nerve and muscle tissues as the intensity per second and used to calculate the adipose to nerve and adipose to muscle contrast ratios. All ex vivo and cellular fluorescence and white light images were collected using a Zeiss AxioObserver inverted fluorescence microscope (Carl Zeiss, Oberkochen, Germany). All cell images were collected at 40× magnification and all tissue section images were collected at 10× magnification. Fluorescence excitation was completed using a Photofluor II broad band light source (89 North, Burlington, Vt.) filtered with a 545±12.5 nm bandpass excitation filter. Fluorescence images were collected using a 605±35 nm bandpass emission filter and a AxioCam 506 monochromo camera (Zeiss). All Filters were Purchased from Chroma Technologies (Bellows Falls, Vt.).

[4] = Spectroscopic analysis: absorbance, emission and quantum yield of Nile Red derivatives; type: physicochemical; details: in DMSO
Experimental: Tandem liquid chromatography mass spectroscopy (LCMS) analysis (Agilent 1260 LC system with a 6224 time of flight (TOF) MS, Agilent, Santa Clara, Calif.) was performed using a 2.7 micron C18 column (4.6×50 mm, Agilent). High performance liquid chromatography (HPLC) purification (Agilent 1260 system with a preparative pump) was performed using a 5 micron C18 column (21.2×150 mm, Agilent). For both HPLC and LCMS, the mobile phase consisted of HPLC grade acetonitrile and water, treated with 0.1% formic acid. Spectroscopic analysis was performed on a Spectramax M5 spectrometer (Molecular Devices, Sunnyvale, Calif.) using a quartz cuvette with a 1 cm pathlength. Quantum yield was calculated according to equation (1).
Where Ø is the quantum yield, F is the integrated fluorescence intensity, f is the absorbance at the excitation wavelength and n is the refractive index of the solvent. S refers to the quantum yield standard (Rhodamine B)^25 and X refers to the unknown sample.

CCN(CC)c1ccc2nc3c4cc(-c5ccc(C#N)cc5)ccc4c(=O)cc-3oc2c1 [NR12, 4-(9-(diethylamino)-5-oxo-5H-benzo[a]phenoxazin-2-yl)benzonitrile]
adipose to muscle ratio [1]: lower than Nile Red, adipose to muscle contrast was similar | adipose to nerve ratio [1]: increased contrast over control autofluorescence with similar adipose to nerve contrast | structures observed in live cells without washing [2]: Prominent lipid droplet like structures | tissue staining specificity on mouse tissue sections [3]: adipose specificity | Max Abs [4]: 560 nm | Max Em [4]: 635 nm | Stokes Shift [4]: 75 nm
